Measured values: the kinase profiling compilation of Christmann-Franck et al. (2016)

What was measured:
Experiment in all cases: KINOMEscan competition binding
Conditions in all cases: compound 10.0 µM
CSNK1G2 (human) = CSNK1G2 (human) (UniProt P78368)
NTRK3 (human) = NTRK3 (human) (UniProt Q16288)
[1] = tested on: ABL1 (human), P00519 [H396P]
CDC42BPA (human) = CDC42BPA (human) (UniProt Q5VT25)
TSSK1B (human) = TSSK1B (human) (UniProt Q9BXA7)
EPHA5 (human) = EPHA5 (human) (UniProt P54756)
MAPKAPK2 (human) = MAPKAPK2 (human) (UniProt P49137)
Chain of MAPKAPK2 (human) (P49137 whole entry, looked up): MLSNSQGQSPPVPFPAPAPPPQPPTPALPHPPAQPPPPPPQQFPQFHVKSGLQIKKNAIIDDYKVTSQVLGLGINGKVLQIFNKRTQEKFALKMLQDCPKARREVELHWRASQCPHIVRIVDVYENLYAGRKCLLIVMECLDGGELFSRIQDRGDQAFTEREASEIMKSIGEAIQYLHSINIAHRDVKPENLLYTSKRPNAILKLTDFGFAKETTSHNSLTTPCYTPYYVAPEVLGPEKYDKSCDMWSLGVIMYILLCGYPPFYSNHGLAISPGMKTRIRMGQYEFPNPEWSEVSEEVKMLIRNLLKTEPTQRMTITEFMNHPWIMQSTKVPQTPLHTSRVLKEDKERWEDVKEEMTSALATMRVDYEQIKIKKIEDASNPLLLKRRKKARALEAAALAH

WEE2 (human) = WEE2 (human) (UniProt P0C1S8)
[2] = tested on: EGFR (human), P00533 [L861Q]
MAP2K2 (human) = MAP2K2 (human) (UniProt P36507)
Chain of MAP2K2 (human) (P36507 whole entry, looked up): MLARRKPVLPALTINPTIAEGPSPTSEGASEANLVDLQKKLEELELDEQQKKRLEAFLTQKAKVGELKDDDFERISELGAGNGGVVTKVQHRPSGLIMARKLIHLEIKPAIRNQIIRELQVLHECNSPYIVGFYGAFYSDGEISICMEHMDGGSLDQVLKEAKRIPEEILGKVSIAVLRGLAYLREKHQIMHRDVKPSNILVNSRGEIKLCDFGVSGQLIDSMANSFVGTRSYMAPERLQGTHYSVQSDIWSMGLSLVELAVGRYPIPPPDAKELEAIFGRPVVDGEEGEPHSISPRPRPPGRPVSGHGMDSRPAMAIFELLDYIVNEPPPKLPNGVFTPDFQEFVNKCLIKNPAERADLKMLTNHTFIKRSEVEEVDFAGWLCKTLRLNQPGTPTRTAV

CDK11A (human) = CDK11A (human) (UniProt Q9UQ88)
MARK1 (human) = MARK1 (human) (UniProt Q9P0L2)
GSK3B (human) = GSK3B (human) (UniProt P49841)
Chain of GSK3B (human) (P49841 whole entry, looked up): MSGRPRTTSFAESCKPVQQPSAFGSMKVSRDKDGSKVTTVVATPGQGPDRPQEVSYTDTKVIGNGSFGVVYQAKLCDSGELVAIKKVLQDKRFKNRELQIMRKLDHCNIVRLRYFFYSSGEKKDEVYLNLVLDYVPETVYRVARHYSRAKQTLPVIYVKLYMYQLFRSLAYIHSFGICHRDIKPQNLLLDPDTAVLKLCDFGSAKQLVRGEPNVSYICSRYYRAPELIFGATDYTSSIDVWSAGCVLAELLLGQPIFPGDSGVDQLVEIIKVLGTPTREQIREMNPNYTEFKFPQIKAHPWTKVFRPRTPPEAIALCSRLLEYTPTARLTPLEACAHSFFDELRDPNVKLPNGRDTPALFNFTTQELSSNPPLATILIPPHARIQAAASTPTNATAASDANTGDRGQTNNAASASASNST

DDR2 (human) = DDR2 (human) (UniProt Q16832)
RPS6KA2 KD1 (human) = RPS6KA2 KD1 (human) (UniProt Q15349)
ADCK4 (human) = ADCK4 (human) (UniProt Q96D53)
Chain of ADCK4 (human) (Q96D53 whole entry, looked up): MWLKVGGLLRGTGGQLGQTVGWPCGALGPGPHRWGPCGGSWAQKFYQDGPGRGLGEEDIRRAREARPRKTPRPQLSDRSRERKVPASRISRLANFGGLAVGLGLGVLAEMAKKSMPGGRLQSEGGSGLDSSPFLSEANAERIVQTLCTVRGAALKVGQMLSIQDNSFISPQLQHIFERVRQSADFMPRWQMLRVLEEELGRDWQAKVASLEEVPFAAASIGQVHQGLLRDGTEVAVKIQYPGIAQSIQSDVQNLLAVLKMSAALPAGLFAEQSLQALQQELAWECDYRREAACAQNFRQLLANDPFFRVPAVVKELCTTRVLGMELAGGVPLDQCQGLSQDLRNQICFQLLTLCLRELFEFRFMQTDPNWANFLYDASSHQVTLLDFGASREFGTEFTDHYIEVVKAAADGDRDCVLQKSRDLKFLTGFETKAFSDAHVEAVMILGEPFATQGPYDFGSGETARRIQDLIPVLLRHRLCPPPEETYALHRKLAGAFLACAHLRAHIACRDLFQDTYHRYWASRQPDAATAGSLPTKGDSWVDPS

FER (human) = FER (human) (UniProt P16591)
MAP3K12 (human) = MAP3K12 (human) (UniProt Q12852)
NEK7 (human) = NEK7 (human) (UniProt Q8TDX7)
MAP3K11 (human) = MAP3K11 (human) (UniProt Q16584)
AXL (human) = AXL (human) (UniProt P30530)
EPHA1 (human) = EPHA1 (human) (UniProt P21709)
MARK3 (human) = MARK3 (human) (UniProt P27448)
CDK9 (human) = CDK9 (human) (UniProt P50750)
PAK1 (human) = PAK1 (human) (UniProt Q13153)
Chain of PAK1 (human) (Q13153 whole entry, looked up): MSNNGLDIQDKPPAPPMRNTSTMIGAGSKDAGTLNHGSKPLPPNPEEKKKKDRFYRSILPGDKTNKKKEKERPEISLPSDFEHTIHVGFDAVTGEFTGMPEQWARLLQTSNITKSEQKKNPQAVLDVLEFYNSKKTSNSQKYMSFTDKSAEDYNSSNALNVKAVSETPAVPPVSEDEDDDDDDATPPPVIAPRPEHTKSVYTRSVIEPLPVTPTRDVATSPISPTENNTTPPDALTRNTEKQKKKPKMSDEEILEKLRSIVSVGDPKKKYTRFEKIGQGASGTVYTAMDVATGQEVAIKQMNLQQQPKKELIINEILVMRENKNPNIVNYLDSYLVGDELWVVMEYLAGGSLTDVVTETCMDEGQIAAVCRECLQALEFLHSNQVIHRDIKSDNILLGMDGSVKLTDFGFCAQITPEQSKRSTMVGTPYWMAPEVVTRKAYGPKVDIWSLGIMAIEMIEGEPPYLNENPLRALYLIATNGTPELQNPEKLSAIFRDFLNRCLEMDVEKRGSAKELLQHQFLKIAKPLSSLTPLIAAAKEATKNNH

PAK4 (human) = PAK4 (human) (UniProt O96013)
CAMK2G (human) = CAMK2G (human) (UniProt Q13555)
EPHB2 (human) = EPHB2 (human) (UniProt P29323)
MAP3K10 (human) = MAP3K10 (human) (UniProt Q02779)
PIK3CA (human) = PIK3CA (human) (UniProt P42336)
EPHA6 (human) = EPHA6 (human) (UniProt Q9UF33)
PAK2 (human) = PAK2 (human) (UniProt Q13177)
MYO3B (human) = MYO3B (human) (UniProt Q8WXR4)
[3] = tested on: EGFR (human), P00533 [752-759 del]
PRKACB (human) = PRKACB (human) (UniProt P22694)
NEK5 (human) = NEK5 (human) (UniProt Q6P3R8)
FGFR2 (human) = FGFR2 (human) (UniProt P21802)
NEK9 (human) = NEK9 (human) (UniProt Q8TD19)
NEK1 (human) = NEK1 (human) (UniProt Q96PY6)
PRKAA1 (human) = PRKAA1 (human) (UniProt Q13131)
YES1 (human) = YES1 (human) (UniProt P07947)
TLK2 (human) = TLK2 (human) (UniProt Q86UE8)

Chain of CDC42BPA (human) (Q5VT25 whole entry, looked up): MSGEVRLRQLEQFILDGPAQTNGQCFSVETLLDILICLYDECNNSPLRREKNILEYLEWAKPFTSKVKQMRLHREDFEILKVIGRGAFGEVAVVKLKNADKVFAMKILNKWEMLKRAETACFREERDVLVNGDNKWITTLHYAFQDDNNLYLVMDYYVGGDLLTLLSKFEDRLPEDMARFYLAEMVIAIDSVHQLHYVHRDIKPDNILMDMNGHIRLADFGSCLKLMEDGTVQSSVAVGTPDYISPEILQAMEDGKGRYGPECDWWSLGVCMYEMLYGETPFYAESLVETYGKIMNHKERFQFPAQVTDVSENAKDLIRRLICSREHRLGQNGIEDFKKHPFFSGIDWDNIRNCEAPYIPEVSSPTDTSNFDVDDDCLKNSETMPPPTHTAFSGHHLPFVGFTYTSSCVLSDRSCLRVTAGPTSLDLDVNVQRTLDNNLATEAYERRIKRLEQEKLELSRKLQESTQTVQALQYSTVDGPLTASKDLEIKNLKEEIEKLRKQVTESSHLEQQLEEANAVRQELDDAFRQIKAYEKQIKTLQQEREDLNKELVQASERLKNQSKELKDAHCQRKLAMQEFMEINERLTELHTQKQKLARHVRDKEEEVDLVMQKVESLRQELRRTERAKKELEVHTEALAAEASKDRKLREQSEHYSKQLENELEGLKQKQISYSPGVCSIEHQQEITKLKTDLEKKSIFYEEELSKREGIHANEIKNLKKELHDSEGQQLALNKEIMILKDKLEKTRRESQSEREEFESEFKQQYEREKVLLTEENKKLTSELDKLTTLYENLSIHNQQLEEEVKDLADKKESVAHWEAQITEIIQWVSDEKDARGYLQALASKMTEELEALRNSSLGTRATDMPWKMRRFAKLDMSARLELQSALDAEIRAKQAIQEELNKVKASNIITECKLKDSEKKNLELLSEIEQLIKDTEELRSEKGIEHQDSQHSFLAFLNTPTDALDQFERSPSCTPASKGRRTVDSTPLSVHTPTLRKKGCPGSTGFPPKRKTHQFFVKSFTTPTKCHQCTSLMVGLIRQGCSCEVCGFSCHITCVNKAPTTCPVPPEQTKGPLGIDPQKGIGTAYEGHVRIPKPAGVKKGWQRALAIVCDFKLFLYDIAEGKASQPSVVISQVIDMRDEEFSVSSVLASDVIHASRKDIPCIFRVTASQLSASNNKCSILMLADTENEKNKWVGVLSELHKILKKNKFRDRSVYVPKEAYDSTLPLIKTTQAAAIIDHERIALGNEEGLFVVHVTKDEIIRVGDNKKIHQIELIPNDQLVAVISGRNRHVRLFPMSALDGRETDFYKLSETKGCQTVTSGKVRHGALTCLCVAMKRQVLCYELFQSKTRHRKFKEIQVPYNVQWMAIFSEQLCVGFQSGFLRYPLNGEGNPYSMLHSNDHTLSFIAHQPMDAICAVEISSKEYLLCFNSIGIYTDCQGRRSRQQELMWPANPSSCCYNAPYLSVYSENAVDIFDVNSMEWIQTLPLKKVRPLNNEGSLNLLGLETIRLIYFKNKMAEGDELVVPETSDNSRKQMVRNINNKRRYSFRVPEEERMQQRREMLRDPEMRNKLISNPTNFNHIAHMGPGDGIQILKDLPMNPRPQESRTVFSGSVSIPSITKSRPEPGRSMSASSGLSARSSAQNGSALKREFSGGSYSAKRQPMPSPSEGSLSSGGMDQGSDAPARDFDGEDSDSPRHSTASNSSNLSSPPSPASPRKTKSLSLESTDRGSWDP
Chain of NTRK3 (human) (Q16288 whole entry, looked up): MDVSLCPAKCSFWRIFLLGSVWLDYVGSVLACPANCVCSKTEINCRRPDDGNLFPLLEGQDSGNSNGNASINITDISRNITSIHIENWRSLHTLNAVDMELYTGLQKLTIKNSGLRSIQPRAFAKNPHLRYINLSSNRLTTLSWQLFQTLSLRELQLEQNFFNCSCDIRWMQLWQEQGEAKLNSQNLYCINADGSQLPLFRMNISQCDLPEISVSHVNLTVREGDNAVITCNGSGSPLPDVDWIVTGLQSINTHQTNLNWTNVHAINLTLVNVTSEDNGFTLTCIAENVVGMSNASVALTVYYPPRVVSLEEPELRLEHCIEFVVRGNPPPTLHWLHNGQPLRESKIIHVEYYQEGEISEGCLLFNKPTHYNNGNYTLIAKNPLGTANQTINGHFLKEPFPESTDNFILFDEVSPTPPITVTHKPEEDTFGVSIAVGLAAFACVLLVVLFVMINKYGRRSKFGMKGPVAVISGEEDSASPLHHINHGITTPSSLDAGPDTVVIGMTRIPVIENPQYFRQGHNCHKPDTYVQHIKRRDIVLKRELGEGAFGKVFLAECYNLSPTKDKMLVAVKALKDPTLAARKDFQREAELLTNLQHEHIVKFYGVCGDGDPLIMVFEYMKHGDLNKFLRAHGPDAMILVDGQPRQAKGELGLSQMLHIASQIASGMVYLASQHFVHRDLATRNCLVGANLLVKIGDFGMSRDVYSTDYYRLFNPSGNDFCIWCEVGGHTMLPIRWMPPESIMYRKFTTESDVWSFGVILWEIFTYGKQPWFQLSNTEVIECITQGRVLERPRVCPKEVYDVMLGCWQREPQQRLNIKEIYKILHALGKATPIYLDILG

Compound CN1C(=O)c2ccccc2N(C)c2nc(NS(=O)(=O)c3ccc(N)cc3)ncc21 has a kinase still bound, per cent of control (CSNK1G2 (human)) of 100%, a kinase still bound, per cent of control (NTRK3 (human)) of 72% and a kinase still bound, per cent of control [1] of 100%. For the same compound, the kinase still bound, per cent of control (CDC42BPA (human)) was 90%, the kinase still bound, per cent of control (TSSK1B (human)) was 100% and the kinase still bound, per cent of control (EPHA5 (human)) was 100%. For the same compound, the kinase still bound, per cent of control (MAPKAPK2 (human)) was 96%, the kinase still bound, per cent of control (WEE2 (human)) was 100% and the kinase still bound, per cent of control [2] was 84%. For the same compound, the kinase still bound, per cent of control (MAP2K2 (human)) was 100%, the kinase still bound, per cent of control (CDK11A (human)) was 99% and the kinase still bound, per cent of control (MARK1 (human)) was 100%. The kinase still bound, per cent of control (GSK3B (human)) was 94%, the kinase still bound, per cent of control (DDR2 (human)) was 98% and the kinase still bound, per cent of control (RPS6KA2 KD1 (human)) was 100%. The kinase still bound, per cent of control (ADCK4 (human)) was 91%, the kinase still bound, per cent of control (FER (human)) was 62% and the kinase still bound, per cent of control (MAP3K12 (human)) was 90%. For the same compound, the kinase still bound, per cent of control (NEK7 (human)) was 89%, the kinase still bound, per cent of control (MAP3K11 (human)) was 100% and the kinase still bound, per cent of control (AXL (human)) was 100%. For the same compound, the kinase still bound, per cent of control (EPHA1 (human)) was 100%, the kinase still bound, per cent of control (MARK3 (human)) was 100% and the kinase still bound, per cent of control (CDK9 (human)) was 100%. For the same compound, the kinase still bound, per cent of control (PAK1 (human)) was 100%, the kinase still bound, per cent of control (PAK4 (human)) was 100% and the kinase still bound, per cent of control (CAMK2G (human)) was 100%. It also gave a kinase still bound, per cent of control (EPHB2 (human)) of 94%, a kinase still bound, per cent of control (MAP3K10 (human)) of 100% and a kinase still bound, per cent of control (PIK3CA (human)) of 100%. The kinase still bound, per cent of control (EPHA6 (human)) was 100%, the kinase still bound, per cent of control (PAK2 (human)) was 100% and the kinase still bound, per cent of control (MYO3B (human)) was 74%. For the same compound, the kinase still bound, per cent of control [3] was 100%, the kinase still bound, per cent of control (PRKACB (human)) was 100% and the kinase still bound, per cent of control (NEK5 (human)) was 100%. It also gave a kinase still bound, per cent of control (FGFR2 (human)) of 100%, a kinase still bound, per cent of control (NEK9 (human)) of 100% and a kinase still bound, per cent of control (NEK1 (human)) of 100%. It also gave a kinase still bound, per cent of control (PRKAA1 (human)) of 100%, a kinase still bound, per cent of control (YES1 (human)) of 100% and a kinase still bound, per cent of control (TLK2 (human)) of 100%.
